The record followed here is patent publication US6461610B1, “Methods for modifying cell motility using factor VIIa or inactivated factor VIIa” (Novo Nordisk A/S, priority 1997, dated 2002).

In assay [1] the test system is human foreskin fibroblasts AG1523. Put plainly: Chemotaxis assay, modified Boyden chamber, PDGF-BB induced migration of fibroblasts. It counts as cell-based. As to conditions: for effect of inhibitor on FVIIa/TF hyperchemotactic response to PDGF-BB: 30 min pretreatment; for migration of fibroblast in response to PDGF without FVIIa: without the ligand FVIIa. Here is the method: Chemotaxis assay. The migration response of fibroblasts was assayed by means of the leading front technique in a modified Boyden chamber, as previously described (Nister et al., Cell 52, 791-799 (1988); Siegbahn et al. J. Clin. Invest. 85, 916-920 (1990)). Micropore filters (pore size 8 μm) were coated with a solution of type-i collagen at room temperature over night. The filters were air dried for 30 minutes immediately before use.
Human foreskin fibroblasts AG1523 were grown to confluence in Eagle's MEM supplemented with 10% FBS. The cells were detached by trypsinization (2.5 mg/ml for 10 minutes at 37° C.) and suspended in Eagle's MEM with 10% FBS. The fibroblasts were incubated for 10 minutes with or without FVIIa or FFR-FVIIa before assay. One hundred microliters of the cell suspension (2×10^5 cells/ml) was added above the filter of the Boyden chamber. PDGF-BB was diluted in assay media (Eagle's MEM with 10% FBS) and added below the filter in the chamber. The cells were incubated for 6 hours at 37° C. in a humidified chamber containing 95% air/5% CO2. FVIIa or FFR-FVIIa were present during the entire experiment. The filters were then removed, fixed in ethanol, stained with Mayer's Hemalun, and mounted. Migration was measured as the distance of the two furthest migrating fibroblast nuclei of one high-power field (12.5×24) in focus. The migration distance in each filter was calculated as the mean of the readings of at least three different parts of the filter. Experiments were performed with two to four separate filters for each concentration of chemoattractant. For each set of experiments, the migration of fibroblasts toward the assay media served as control. In cases when anti-TF monoclonal antibodies or inhibitors to coagulation factors, TAP and Hirudin, were used, cells were preincubated for 10 minutes with these agents, then with or without FVIIa or FFR-FVIIa before the chemotaxis assay was performed. Antibodies, TAP or Hirudin were also present during the entire chemotaxis experiment. In experiments where the effects on the migration response of different inhibitors, LY294002, U73122 or U73343, were tested, cells were preincubated for 30 minutes with the inhibitors at indicated concentrations, and the inhibitors were also present throughout the experiments.
Fibroblasts expressing active TF (FIG. 11) were incubated with 100 nM of FVIIa and seeded in the upper part of the modified Boyden chamber; while media containing 10% FBS and PDGF-BB at different concentrations were added below the […] micropore filter. The migration of the cells under conditions where medium containing 10% FBS without PDGF-BB was added below the filter was used as a measure of random migration, and calculated as 100% migration.

Another assay has as its system human TF. Put plainly: SRE/STAT luciferase reporter (KZ136) in BHK cells stably transfected with human TF. It counts as cell-based. The conditions noted are these: 50 μM PD98059 for one hour prior to 100 nM FVIIa. An excerpt: BHK cells with and without stably transfected TF were stably transfected with KZ136 (reporter construct encoding 2×STAT1,3), 2×(STAT4,5,6) and a serum response element (SRE) upstream to a luciferase reporter gene) were stimulated with FVIIa. Only cells expressing TF responded to FVIIa in a dose dependent manner.
PD98059 is a specific inhibitor of MEK1, a kinase specifically involved in the p44/p42 MAPK cascade.
BHK cells stably transfected with the human TF and the reporter plasmid KZ136 were grown to 90% confluence, starved in DMEM with 0.1% FCS for 16 hours and then stimulated with FVIIa or FVIIai (FIG. 8). […] Also shown in FIG. 8 is an experiment where competition between FVIIa and FVIIai was studied. FVIIai was added to the cells 1 hour prior to stimulation with 20 nM FVIIa. The response induced by 20 nM FVIIa was inhibited 27%, 59%, 77%, and 91% by the addition of 20 nM, 50 nM, 100 nM, and 500 nM FVIIai, respectively.

Assay [2] concerns the target T1, factor VIIa/tissue factor complex (Homo sapiens, UniProt P08709).
T1 construct: TF1-218 from Dr W. Kisiel, University of New Mexico
T1 sequence (P08709 61-212 limits assumed): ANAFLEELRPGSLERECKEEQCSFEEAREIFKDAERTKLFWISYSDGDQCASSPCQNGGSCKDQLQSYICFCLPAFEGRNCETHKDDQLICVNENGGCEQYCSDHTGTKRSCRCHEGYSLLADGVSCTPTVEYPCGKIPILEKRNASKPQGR
T1 sequence (P08709 213-466 limits assumed): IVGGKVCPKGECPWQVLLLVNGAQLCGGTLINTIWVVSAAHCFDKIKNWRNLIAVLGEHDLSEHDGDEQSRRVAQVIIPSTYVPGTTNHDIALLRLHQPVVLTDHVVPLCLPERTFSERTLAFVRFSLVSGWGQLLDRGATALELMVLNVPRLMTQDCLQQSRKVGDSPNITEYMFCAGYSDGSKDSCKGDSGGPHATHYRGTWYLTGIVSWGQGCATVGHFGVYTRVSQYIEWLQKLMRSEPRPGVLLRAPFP
As to the kind of experiment: TF-stimulated factor VIIa activity with chromogenic substrate S2288, zinc ion inhibition. It counts as biochemical. As to conditions: 0.2 mM cystin dihydroxamate; 10 nM FVIIa, 50 nM TF1-218. The method, then: Factor VIIa activity was measured with the chromogenic substrate S2288 (H-D-Ile-Pro-Arg-p-nitroanilide). The activity of 10 nM FVIIa in the presence of 50 nM TF1-218 (Dr W. Kisiel, University of New Mexico, Albuquerque, N. Mex.) was measured in buffer containing 50 mM TrisCl pH 7.4 0.1 M NaCl, 1 mM CaCl2, 0.05% Tween 20 and 0.4 mM S2288. The activity was measured at room temperature as the change in absorbance at 405 nm.

For the next assay, the system named is MAPK p44/42. Put plainly: Western blot of phosphorylated MAPK p44/42 in BHK cells stably transfected with human TF. The conditions noted are these: 100 nM for 5 min. It counts as cell-based. The method, then:
In this set of experiments with TF transfected BHK, ECV-304 and MDCK cell lines two antibodies raised against the MAPK were used, one targeting activated as well as non-activated forms of MAPK, and another, targeting only the activated (phosphorylated) form of MAPK.
BHK cells stable transfected with human TF were grown to 90% confluence and starved in DMEM with 0. 1% FCS for 24 hours prior to stimulation with FVIIa. Samples for Western blotting were sampled at 0, 3, 5, 7, 10, 20 and 40 minutes after addition of 100 nM FVIIa. […] Over the next 10 minutes the response declined to reach the background level at about 20 minutes after addition of FVIIa.
In this set of experiments with TF transfected BHK cell lines we used a phospho-specific antibody against phosphorylated (Thr202/Tyr204) p44/42 MAPK and an antibody targeting total p44/42 MAPK (New Englands Biolabs, Beverly, Mass.).
BHK cells stable transfected with human TF were grown to 90% confluence and starved in DMEM with 0.1% FCS for 24 hours prior to stimulation. In FIG. 9A the cells were stimulated with 100 nM FVIIa for 0, 3, 5, 7, 10 and 40 minutes before the cells were lysed and samples for Western blotting were taken.
The results shown in FIG. 9B were obtained when BHK(+TF) cells were exposed to 100 nM FVII, FVIIa, FVIIai, [Ala344]FVII or FXa for 5 min. […]
A general note: In western blotting, separated proteins are transferred to a membrane and probed.

Where [3] appears, read: 100 nM FVIIa, 0.1 ng/ml PDGF-BB.

Take `COc1ccc2c(c1)CC[C@@H]1[C@@H]2CC[C@]2(C)[C@@H](NCCCCCCN3C(=O)C=CC3=O)CC[C@@H]12` [Example U73122]: in assay [1] (setting [3]), the “inhibitor concentration giving total inhibition of hyperchemotactic response” value was 1 µM and the “effect of inhibitor on FVIIa/TF hyperchemotactic response to PDGF-BB” value is reported as “inhibited”. Regarding `COc1ccc2c(c1)CC[C@@H]1[C@@H]2CC[C@]2(C)[C@@H](NCCCCCCN3C(=O)CCC3=O)CC[C@@H]12` [Example U73343], the “effect of inhibitor on FVIIa/TF hyperchemotactic response to PDGF-BB” value in assay [1] (setting [3]) is on record as “No effect”.

On to `COc1cccc(-c2cc(=O)c3ccccc3o2)c1N` [PD98059], for which the “reporter response to 100 nM FVIIa after inhibitor pre-treatment” value in the assay with human TF is on record as “did not respond”.

In the case of `N[C@@H](CSSC[C@H](N)C(=O)NO)C(=O)NO` [cystindihydroxamate, L-Cystine dihydroxamate], the “effect of zinc ions to abolish FVIIa-TF complex formation / activity in presence of chelator” value in assay [2] is on record as “profoundly potentiated”.

In the case of Hirudin, the “effect on FVIIa/TF induced hyperchemotaxis” value in assay [1] (5 U/ml Hirudin, 100 nM FVIIa) is “had no any effect”. Also, the “migration of fibroblast in response to PDGF without FVIIa” value in assay [1] is listed as “did not influence”. With “TAP: Tick anticoagulant peptide, specifically blocks the active site of FXa (YNRLCIKPRDWIDECDSNEGGERAYFRNGKGGCDSFWICPEDHTGADYYSSYRDCFNACI; UniProt P17726 1-60, looked up)”, in assay [1] (0.2-10 μM TAP, 100 nM FVIIa), the “effect on enhanced migration response transduced by FVIIa/TF” value is “not blocked”. Besides, the “migration of fibroblast in response to PDGF without FVIIa” value in assay [1] is given as “did not influence”.

B1: [Ala344]FVII: FVII with Ala at catalytic residue 344 (protein, UniProt P08709 1-466, looked up, variant S344A)
chain: MVSQALRLLCLLLGLQGCLAAGGVAKASGGETRDMPWKPGPHRVFVTQEEAHGVLHRRRRANAFLEELRPGSLERECKEEQCSFEEAREIFKDAERTKLFWISYSDGDQCASSPCQNGGSCKDQLQSYICFCLPAFEGRNCETHKDDQLICVNENGGCEQYCSDHTGTKRSCRCHEGYSLLADGVSCTPTVEYPCGKIPILEKRNASKPQGRIVGGKVCPKGECPWQVLLLVNGAQLCGGTLINTIWVVSAAHCFDKIKNWRNLIAVLGEHDLSEHDGDEQSRRVAQVIIPSTYVPGTTNHDIALLRLHQPVVLTDHVVPLCLPERTFSERTLAFVRFSLVSGWGQLLDRGATALELMVLNVPRLMTQDCLQQSRKVGDSPNITEYMFCAGYSDGSKDSCKGDAGGPHATHYRGTWYLTGIVSWGQGCATVGHFGVYTRVSQYIEWLQKLMRSEPRPGVLLRAPFP
As for B1, the “activation (phosphorylation) of p44/42 MAPK” value in the assay with MAPK p44/42 is reported as “no significant activation”.
